Where a SMILES comes first, the peptide text is derived from it. Bridges are numbered along the chain shown (N, C = ends). [ ]: non-standard residue; d: D form. The star is where a group is joined. NMePhe(4-NMe2) = CN[C@@H](Cc1ccc(N(C)C)cc1)C(=O)O; Pip(4-oxo) = O=C1CCN[C@H](C(=O)O)C1; Picolinoyl(3-OH) = O=C(c1ncccc1O)*; Phg = N[C@H](C(=O)O)c1ccccc1; dAbu = CC[C@@H](N)C(=O)O
How the values were obtained:
[1] = human
[2] = human; remark: listed apart in the source
[3] = human, serum
[4] = Highest frequency of moderate liver toxicity observed during clinical trials, expressed as a percentage. [column '% BIOL' in source]; details: human
[5] = human; remark: listed apart in the source
[6] = human, serum; remark: listed apart in the source
[7] = human; remark: listed apart in the source
[8] = human; remark: listed apart in the source
[9] = human; remark: listed apart in the source
[10] = human, serum, 4383 h
[11] = human; remark: listed apart in the source
[12] = human; remark: listed apart in the source
[13] = human; remark: listed apart in the source
[14] = Highest frequency of acute liver toxicity observed during clinical trials, expressed as a percentage. [column '% AIGUE' in source]; details: human
[15] = Times to onset, minimal and maximal, observed in the indexed observations. [column 'DELAI' in source]; details: human
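Wherever Hepatotoxicity (association with vascular disease) is given: count of indexed literature references reporting vascular liver injury in humans, e.g. peliosis hepatitis, hepatic veno-occlusive disease or Budd-Chiari syndrome.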
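Wherever Hepatotoxicity (benign tumour) is given: value is a count of indexed literature references citing a benign tumour confirmed by histopathology.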
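Wherever Hepatotoxicity (choleostasis) is given: human cholestatic liver injury, shown by histopathology or by peak ALT or AST elevation over alkaline phosphatase ratio below 2, value counts indexed literature reports.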
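Wherever Hepatotoxicity (chronic liver disease) is given: chronic liver injury confirmed by histopathology or persistently raised serum aminotransferase activity beyond 6 months, value given as the count of indexed literature references.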
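Wherever Hepatotoxicity (cirrhosis) is given: value is a count of indexed literature references reporting cirrhosis confirmed by histopathology.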
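Wherever Hepatotoxicity (cytolytic) is given: human cytolytic liver injury, shown by histopathology or by a ratio above 5 of peak ALT or AST elevation to alkaline phosphatase elevation, value counts indexed references.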
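Wherever Hepatotoxicity (granulomatous hepatitis) is given: value is a count of indexed literature references reporting granulomatous liver disease confirmed by histopathology.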
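Wherever Hepatotoxicity (malignant tumour) is given: malignant tumour confirmed by histopathology, value gives the count of indexed literature references reporting it.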
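Wherever Hepatotoxicity (severe hepatitis) is given: human clinical data: severe hepatitis, meaning potentially life-threatening liver failure or clinically observed cases, the value counts how many indexed literature references report it.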
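Wherever Hepatotoxicity (steatosis) is given: steatosis confirmed by histopathology, value is the count of indexed references.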

For `CCCCC(=O)N(Cc1ccc(-c2ccccc2-c2nnn[nH]2)cc1)[C@H](C(=O)O)C(C)C`, the “Hepatotoxicity (benign tumour)” value [1] was 0, the “Hepatotoxicity (malignant tumour)” value [2] was 0 and the “Hepatotoxicity (moderate)” value [3] was 2. For the same compound, the “Hepatotoxicity (moderate)” value [4] was 0%, the “Hepatotoxicity (severe hepatitis)” value [5] was 1 and the “Hepatotoxicity (acute)” value [6] was 3. The “Hepatotoxicity (choleostasis)” value [7] was 1, the “Hepatotoxicity (cirrhosis)” value [8] was 0 and the “Hepatotoxicity (steatosis)” value [9] was 0. For the same compound, the “Hepatotoxicity (chronic liver disease)” value [10] was 0, the “Hepatotoxicity (granulomatous hepatitis)” value [11] was 0 and the “Hepatotoxicity (association with vascular disease)” value [12] was 0. For the same compound, the “Hepatotoxicity (cytolytic)” value [13] was 1, the “Hepatotoxicity (acute)” value [14] was 0% and the “Hepatotoxicity (time to onset)” value [15] was 1 month - 4.5 months.

In the case of `O=c1[nH]c(=O)n([C@H]2C[C@H](O)[C@@H](CO)O2)cc1I` [IDOXURIDINE], the “Hepatotoxicity (benign tumour)” value [1] is reported as 0, the “Hepatotoxicity (malignant tumour)” value [2] is reported as 0 and the “Hepatotoxicity (moderate)” value [3] is reported as 3. The “Hepatotoxicity (moderate)” value [4] was 3.6%, the “Hepatotoxicity (severe hepatitis)” value [5] was 0 and the “Hepatotoxicity (acute)” value [6] was 1. For the same compound, the “Hepatotoxicity (choleostasis)” value [7] was 1, the “Hepatotoxicity (cirrhosis)” value [8] was 0 and the “Hepatotoxicity (steatosis)” value [9] was 0. For the same compound, the “Hepatotoxicity (chronic liver disease)” value [10] was 0, the “Hepatotoxicity (granulomatous hepatitis)” value [11] was 0 and the “Hepatotoxicity (association with vascular disease)” value [12] was 0. The “Hepatotoxicity (cytolytic)” value [13] was 0, the “Hepatotoxicity (acute)” value [14] was 0% and the “Hepatotoxicity (time to onset)” value [15] was 1 week - 2 weeks.

With `Clc1ccc2c(c1)C(N1CCNCC1)=Nc1ccccc1O2` [AMOXAPINE] the “Hepatotoxicity (benign tumour)” value [1] was 0, the “Hepatotoxicity (malignant tumour)” value [2] was 0 and the “Hepatotoxicity (moderate)” value [3] was 2. For the same compound, the “Hepatotoxicity (moderate)” value [4] was 0%, the “Hepatotoxicity (severe hepatitis)” value [5] was 0 and the “Hepatotoxicity (acute)” value [6] was 2. The “Hepatotoxicity (choleostasis)” value [7] was 0, the “Hepatotoxicity (cirrhosis)” value [8] was 0 and the “Hepatotoxicity (steatosis)” value [9] was 0. The “Hepatotoxicity (chronic liver disease)” value [10] was 0, the “Hepatotoxicity (granulomatous hepatitis)” value [11] was 0 and the “Hepatotoxicity (association with vascular disease)” value [12] was 0. The “Hepatotoxicity (cytolytic)” value [13] was 2, the “Hepatotoxicity (acute)” value [14] was 0% and the “Hepatotoxicity (time to onset)” value [15] was 4 days - 18 days.

With `Nc1ccn([C@@H]2O[C@H](CO)[C@@H](O)C2(F)F)c(=O)n1` [GEMCITABINE] the “Hepatotoxicity (benign tumour)” value [1] was 0, the “Hepatotoxicity (malignant tumour)” value [2] was 0 and the “Hepatotoxicity (moderate)” value [3] was 13. For the same compound, the “Hepatotoxicity (moderate)” value [4] was 90.9%, the “Hepatotoxicity (severe hepatitis)” value [5] was 2 and the “Hepatotoxicity (acute)” value [6] was 12. The “Hepatotoxicity (choleostasis)” value [7] was 3, the “Hepatotoxicity (cirrhosis)” value [8] was 0 and the “Hepatotoxicity (steatosis)” value [9] was 0. The “Hepatotoxicity (chronic liver disease)” value [10] was 0, the “Hepatotoxicity (granulomatous hepatitis)” value [11] was 0 and the “Hepatotoxicity (association with vascular disease)” value [12] was 2. The “Hepatotoxicity (cytolytic)” value [13] was 6, the “Hepatotoxicity (acute)” value [14] was 45.5% and the “Hepatotoxicity (time to onset)” value [15] was 1 cure - 7 cures.

With `C=CC1=C(C(=O)O)N2C(=O)[C@@H](NC(=O)/C(=N\O)c3csc(N)n3)[C@H]2SC1` the “Hepatotoxicity (benign tumour)” value [1] was 0, the “Hepatotoxicity (malignant tumour)” value [2] was 0 and the “Hepatotoxicity (moderate)” value [3] was 43. The “Hepatotoxicity (moderate)” value [4] was 28.6%, the “Hepatotoxicity (severe hepatitis)” value [5] was 0 and the “Hepatotoxicity (acute)” value [6] was 1. For the same compound, the “Hepatotoxicity (choleostasis)” value [7] was 0, the “Hepatotoxicity (cirrhosis)” value [8] was 0 and the “Hepatotoxicity (steatosis)” value [9] was 0. The “Hepatotoxicity (chronic liver disease)” value [10] was 0, the “Hepatotoxicity (granulomatous hepatitis)” value [11] was 1 and the “Hepatotoxicity (association with vascular disease)” value [12] was 0. For the same compound, the “Hepatotoxicity (cytolytic)” value [13] was 0, the “Hepatotoxicity (acute)” value [14] was 0% and the “Hepatotoxicity (time to onset)” value [15] was 2 days.

In the case of `C1CC1` [CYCLOPROPANE], the “Hepatotoxicity (benign tumour)” value [1] is reported as 0, the “Hepatotoxicity (malignant tumour)” value [2] is reported as 0 and the “Hepatotoxicity (moderate)” value [3] is reported as 0. For the same compound, the “Hepatotoxicity (moderate)” value [4] was 0%, the “Hepatotoxicity (severe hepatitis)” value [5] was 2 and the “Hepatotoxicity (acute)” value [6] was 3. The “Hepatotoxicity (choleostasis)” value [7] was 0, the “Hepatotoxicity (cirrhosis)” value [8] was 0 and the “Hepatotoxicity (steatosis)” value [9] was 0. For the same compound, the “Hepatotoxicity (chronic liver disease)” value [10] was 0, the “Hepatotoxicity (granulomatous hepatitis)” value [11] was 0 and the “Hepatotoxicity (association with vascular disease)” value [12] was 0. For the same compound, the “Hepatotoxicity (cytolytic)” value [13] was 3, the “Hepatotoxicity (acute)” value [14] was 0% and the “Hepatotoxicity (time to onset)” value [15] was 1 day - 2 weeks.

With `CN(C)C(=O)OC1N=C(c2ccccc2)c2cc(Cl)ccc2N(C)C1=O` (stereo not given) [CAMAZEPAM] the “Hepatotoxicity (benign tumour)” value [1] was 0, the “Hepatotoxicity (malignant tumour)” value [2] was 0 and the “Hepatotoxicity (moderate)” value [3] was 0. The “Hepatotoxicity (moderate)” value [4] was 0%, the “Hepatotoxicity (severe hepatitis)” value [5] was 0 and the “Hepatotoxicity (acute)” value [6] was 1. The “Hepatotoxicity (choleostasis)” value [7] was 0, the “Hepatotoxicity (cirrhosis)” value [8] was 0 and the “Hepatotoxicity (steatosis)” value [9] was 0. For the same compound, the “Hepatotoxicity (chronic liver disease)” value [10] was 0, the “Hepatotoxicity (granulomatous hepatitis)” value [11] was 0 and the “Hepatotoxicity (association with vascular disease)” value [12] was 0. For the same compound, the “Hepatotoxicity (cytolytic)” value [13] was 1, the “Hepatotoxicity (acute)” value [14] was 0% and the “Hepatotoxicity (time to onset)” value [15] was 3 months.

In the case of `CNC1Cc2ccccc2N(C)c2ccccc21` (stereo not given) [METAPRAMINE], the “Hepatotoxicity (benign tumour)” value [1] is reported as 0, the “Hepatotoxicity (malignant tumour)” value [2] is reported as 0 and the “Hepatotoxicity (moderate)” value [3] is reported as 0. For the same compound, the “Hepatotoxicity (moderate)” value [4] was 0%, the “Hepatotoxicity (severe hepatitis)” value [5] was 0 and the “Hepatotoxicity (acute)” value [6] was 1. The “Hepatotoxicity (choleostasis)” value [7] was 1, the “Hepatotoxicity (cirrhosis)” value [8] was 0 and the “Hepatotoxicity (steatosis)” value [9] was 1. The “Hepatotoxicity (chronic liver disease)” value [10] was 0, the “Hepatotoxicity (granulomatous hepatitis)” value [11] was 0 and the “Hepatotoxicity (association with vascular disease)” value [12] was 0. The “Hepatotoxicity (cytolytic)” value [13] was 1, the “Hepatotoxicity (acute)” value [14] was 0% and the “Hepatotoxicity (time to onset)” value [15] was 3 weeks - 3 months.

With `NC[C@H]1O[C@H](O[C@H]2[C@H](O)[C@@H](O[C@H]3O[C@H](CO)[C@@H](O)[C@H](N)[C@H]3O)[C@H](N)C[C@@H]2N)[C@H](N)C[C@@H]1O` [TOBRAMYCIN] the “Hepatotoxicity (benign tumour)” value [1] was 0, the “Hepatotoxicity (malignant tumour)” value [2] was 0 and the “Hepatotoxicity (moderate)” value [3] was 12. For the same compound, the “Hepatotoxicity (moderate)” value [4] was 23.5%, the “Hepatotoxicity (severe hepatitis)” value [5] was 0 and the “Hepatotoxicity (acute)” value [6] was 1. For the same compound, the “Hepatotoxicity (choleostasis)” value [7] was 0, the “Hepatotoxicity (cirrhosis)” value [8] was 0 and the “Hepatotoxicity (steatosis)” value [9] was 0. For the same compound, the “Hepatotoxicity (chronic liver disease)” value [10] was 0, the “Hepatotoxicity (granulomatous hepatitis)” value [11] was 0 and the “Hepatotoxicity (association with vascular disease)” value [12] was 0. For the same compound, the “Hepatotoxicity (cytolytic)” value [13] was 0, the “Hepatotoxicity (acute)” value [14] was 0% and the “Hepatotoxicity (time to onset)” value [15] was 1 day - 3 weeks.

For `CCCCCNCC(N)=O` [MILACEMIDE], the “Hepatotoxicity (benign tumour)” value [1] was 0, the “Hepatotoxicity (malignant tumour)” value [2] was 0 and the “Hepatotoxicity (moderate)” value [3] was 3. For the same compound, the “Hepatotoxicity (moderate)” value [4] was 70%, the “Hepatotoxicity (severe hepatitis)” value [5] was 0 and the “Hepatotoxicity (acute)” value [6] was 1. For the same compound, the “Hepatotoxicity (choleostasis)” value [7] was 1, the “Hepatotoxicity (cirrhosis)” value [8] was 0 and the “Hepatotoxicity (steatosis)” value [9] was 0. The “Hepatotoxicity (chronic liver disease)” value [10] was 0, the “Hepatotoxicity (granulomatous hepatitis)” value [11] was 0 and the “Hepatotoxicity (association with vascular disease)” value [12] was 0. The “Hepatotoxicity (cytolytic)” value [13] was 1, the “Hepatotoxicity (acute)” value [14] was 0% and the “Hepatotoxicity (time to onset)” value [15] was 3 weeks - 4 weeks.

With `CC(C)=CCN1CC[C@]2(C)c3cc(O)ccc3C[C@H]1[C@H]2C` [(+)-PENTAZOCINE] the “Hepatotoxicity (benign tumour)” value [1] was 0, the “Hepatotoxicity (malignant tumour)” value [2] was 0 and the “Hepatotoxicity (moderate)” value [3] was 0. The “Hepatotoxicity (moderate)” value [4] was 0%, the “Hepatotoxicity (severe hepatitis)” value [5] was 0 and the “Hepatotoxicity (acute)” value [6] was 2. For the same compound, the “Hepatotoxicity (choleostasis)” value [7] was 0, the “Hepatotoxicity (cirrhosis)” value [8] was 0 and the “Hepatotoxicity (steatosis)” value [9] was 0. For the same compound, the “Hepatotoxicity (chronic liver disease)” value [10] was 0, the “Hepatotoxicity (granulomatous hepatitis)” value [11] was 0 and the “Hepatotoxicity (association with vascular disease)” value [12] was 0. For the same compound, the “Hepatotoxicity (cytolytic)” value [13] was 0, the “Hepatotoxicity (acute)” value [14] was 0% and the “Hepatotoxicity (time to onset)” value [15] was less than 3 months.

For `CC[C@H]1NC(=O)[C@@H](NC(=O)c2ncccc2O)[C@@H](C)OC(=O)[C@H](c2ccccc2)NC(=O)[C@@H]2CC(=O)CCN2C(=O)[C@H](Cc2ccc(N(C)C)cc2)N(C)C(=O)[C@@H]2CCCN2C1=O` [PRISTINAMYCIN 1A] ({Picolinoyl(3-OH)}-T[dAbu]P[NMePhe(4-NMe2)][Pip(4-oxo)][Phg]; ester 1-C), the “Hepatotoxicity (benign tumour)” value [1] was 0, the “Hepatotoxicity (malignant tumour)” value [2] was 0 and the “Hepatotoxicity (moderate)” value [3] was 0. The “Hepatotoxicity (moderate)” value [4] was 0%, the “Hepatotoxicity (severe hepatitis)” value [5] was 0 and the “Hepatotoxicity (acute)” value [6] was 1. For the same compound, the “Hepatotoxicity (choleostasis)” value [7] was 0, the “Hepatotoxicity (cirrhosis)” value [8] was 0 and the “Hepatotoxicity (steatosis)” value [9] was 0. The “Hepatotoxicity (chronic liver disease)” value [10] was 0, the “Hepatotoxicity (granulomatous hepatitis)” value [11] was 0 and the “Hepatotoxicity (association with vascular disease)” value [12] was 0. The “Hepatotoxicity (cytolytic)” value [13] was 1, the “Hepatotoxicity (acute)” value [14] was 0% and the “Hepatotoxicity (time to onset)” value [15] was 1.5 months.

For `COc1ccc(OC[C@H]2CN(C)CC[C@@H]2c2ccccc2)cc1` [FEMOXETINE], the “Hepatotoxicity (benign tumour)” value [1] was 0, the “Hepatotoxicity (malignant tumour)” value [2] was 0 and the “Hepatotoxicity (moderate)” value [3] was 0. For the same compound, the “Hepatotoxicity (moderate)” value [4] was 0%, the “Hepatotoxicity (severe hepatitis)” value [5] was 1 and the “Hepatotoxicity (acute)” value [6] was 1. The “Hepatotoxicity (choleostasis)” value [7] was 0, the “Hepatotoxicity (cirrhosis)” value [8] was 0 and the “Hepatotoxicity (steatosis)” value [9] was 0. The “Hepatotoxicity (chronic liver disease)” value [10] was 0, the “Hepatotoxicity (granulomatous hepatitis)” value [11] was 0 and the “Hepatotoxicity (association with vascular disease)” value [12] was 0. For the same compound, the “Hepatotoxicity (cytolytic)” value [13] was 1, the “Hepatotoxicity (acute)” value [14] was 0% and the “Hepatotoxicity (time to onset)” value [15] was 5 months.

In the case of `CCc1oc2ccccc2c1C(=O)c1cc(I)c(O)c(I)c1` [BENZIODARONE], the “Hepatotoxicity (benign tumour)” value [1] is reported as 0, the “Hepatotoxicity (malignant tumour)” value [2] is reported as 0 and the “Hepatotoxicity (moderate)” value [3] is reported as 0. For the same compound, the “Hepatotoxicity (moderate)” value [4] was 0%, the “Hepatotoxicity (severe hepatitis)” value [5] was 0 and the “Hepatotoxicity (acute)” value [6] was 3. For the same compound, the “Hepatotoxicity (choleostasis)” value [7] was 3, the “Hepatotoxicity (cirrhosis)” value [8] was 0 and the “Hepatotoxicity (steatosis)” value [9] was 0. The “Hepatotoxicity (chronic liver disease)” value [10] was 0, the “Hepatotoxicity (granulomatous hepatitis)” value [11] was 0 and the “Hepatotoxicity (association with vascular disease)” value [12] was 0. The “Hepatotoxicity (cytolytic)” value [13] was 0, the “Hepatotoxicity (acute)” value [14] was 0% and the “Hepatotoxicity (time to onset)” value [15] was 1 month - 4 months.
